Consider six molecules from publication PMC6259277, “Synthesis, Gastroprotective Effect and Cytotoxicity of New Amino Acid Diterpene Monoamides and Diamides” (Molecules, 2010).

The subject of data set [1] is ethanol/HCl-induced gastric lesions. As to the kind of experiment: Ethanol/HCl-induced gastric lesion (ulcer) model in mice. It is filed as in vivo. Particulars: for Gastroprotective effect: Lesion index: mean ± SD. The protocol: The gastroprotective activity of the compounds was determined in the ethanol/HCl-induced lesion model in mice. The purity of the tested compounds was higher than 95% by NMR analysis. Male Swiss albino mice weighing 30 ± 3 g were used. Animals were fed on certified Champion diet with free access to water under standard conditions of 12 h dark-light period, 50% relative humidity and 22 °C room temperature. Mice were randomly distributed into groups of eight animals each and fasted for 24 h with free access to water previous to the experiment. Fasting prior to ulcerogenic assays was used because 0.2 mL of the reference antisecretory drug lansoprazole (2-[[[3-methyl-4-(2,2,2-trifluroethoxy)-2-pyridyl]methyl]sulfinyl]benzimidazole) and the amides were administered orally. To keep the animal number to a minimum, dose-response studies were performed with the leucine derivatives 13 and 18 to set the conditions for single-dose comparison of gastroprotective effect. For the selected parent compounds, three doses were used: 25, 50 and 100 mg/kg. Fifty min after oral administration of the compounds, lansoprazole (20 mg/kg) or the vehicle (12% Tween 80, 10 mL/kg), all groups were orally treated with 0.2 mL of a solution containing 60% ethanol/0.3 M HCl (ethanol/HCl) for gastric lesion induction. Animals were sacrificed by cervical dislocation 1 h after the administration of ethanol/HCl, and the stomachs excised and inflated by injection of 5% formalin (1 mL). The ulcerated stomachs were fixed in 5% formalin for 30 min and opened along the greater curvature. The length (mm) of each lesion was measured, and the lesion index expressed as the sum of the length of all lesions. For comparison purposes, the products 1-5, 7-12, 14-16, 19 and 20 were assessed at a single oral dose of 25 mg/kg. The protocols were approved by the Universidad de Talca Institutional Animal Care and Use Committee, which follows the recommendations of the Canadian Council on Animal Care. Tween 80 and lansoprazole (> 98% purity by HPLC) were purchased from Sigma Chemical Co.
Results were expressed as the mean ± SD. In all experiments, statistical differences between several treatments and their respective control were determined by one-way analysis of variance (ANOVA) and when the F value was significant, post hoc differences were determined by the Dunnett's multiple comparison test. The level of significance was set at P < 0.05. All statistical analyses were performed using the software Statistica 5.1 (StatSoft, Inc.) and Statistical Package S-Plus 2000.

Data set [2] can be described thus: Cytotoxicity, neutral red uptake assay, AGS. It is filed as cell-based. As to conditions: human, AGS gastric adenocarcinoma cells, confluent monolayers, confluent cultures, 0-1000 µM, mean ± SD. The protocol:
(§1) Human gastric adenocarcinoma cells AGS (ATCC CRL-1739) were grown as monolayers in Ham F-12 medium containing 1.0 mM L-glutamine and 1.5 g/L sodium bicarbonate, supplemented with 10% heat-inactivated FBS, 100 IU/mL penicillin and 100 µg/mL streptomycin in a humidified incubator with 5% CO2 in air at 37 °C. The cell passage was maintained between 42 and 48. The medium was changed every 2 days. Confluent cultures of MRC-5, AGS and Hep G2 cells were treated with medium containing the compounds at concentrations ranging from 0 up to 1000 µM. The products were first dissolved in DMSO and then in the corresponding culture medium supplemented with 2% FBS. The final content of DMSO in the test medium and controls was 1%. Cells were exposed for 24 h to the assayed compounds. Untreated cells served as controls. Each concentration was tested in quadruplicate together with the control and repeated three times in separate experiments. At the end of the incubation, the neutral red uptake (NRU) assay was carried out to determine cell viability. To calculate the IC50 values (concentration that produces a 50% inhibitory effect on the evaluated parameter) the results were transformed to percentage of controls and the IC50 value was graphically obtained from the dose-response curves.

Data set [3] is described as follows: Cytotoxicity, neutral red uptake assay, MRC-5. As to conditions: human, MRC-5 normal lung fibroblasts, confluent monolayers, confluent cultures, 0-1000 µM, mean ± SD. It is filed as cell-based. The protocol:
(§2) Human normal lung fibroblasts MRC-5 (ATCC CCL-171) and Hep G2 cells (ATCC HB-8065) were grown as monolayers in minimum essential Eagle´s medium (MEM), with Earle's salts, 2.0 mM L-glutamine (Sigma Chemical Co.) and 2.0 g/L sodium bicarbonate (Sigma Chemical Co.), supplemented with 10% heat-inactivated fetal bovine serum (FBS), 100 IU/mL penicillin and 100 µg/mL streptomycin in a humidified incubator with 5% CO2 in air at 37 °C. Cell passage was maintained between 10 and 16 for MRC-5 and between 79 and 82 for Hep G2 cells. The medium was changed every 2 days. Culture media, antibiotics and FBS were obtained from Invitrogen Corp.
as §1, with “Confluent” for “Human gastric adenocarcinoma cells AGS (ATCC CRL-1739) were grown as monolayers in Ham F-12 medium containing 1.0 mM L-glutamine and 1.5 g/L sodium bicarbonate, supplemented with 10% heat-inactivated FBS, 100 IU/mL penicillin and 100 µg/mL streptomycin in a humidified incubator with 5% CO2 in air at 37 °C. The cell passage was maintained between 42 and 48. The medium was changed every 2 days. Confluent”

Data set [4] is described as follows: Cytotoxicity, neutral red uptake assay, Hep G2. It is filed as cell-based. As to conditions: human, Hep G2 cells, confluent monolayers, confluent cultures, 0-1000 µM, mean ± SD. The protocol:
as §2
as §1, with “Confluent” for “Human gastric adenocarcinoma cells AGS (ATCC CRL-1739) were grown as monolayers in Ham F-12 medium containing 1.0 mM L-glutamine and 1.5 g/L sodium bicarbonate, supplemented with 10% heat-inactivated FBS, 100 IU/mL penicillin and 100 µg/mL streptomycin in a humidified incubator with 5% CO2 in air at 37 °C. The cell passage was maintained between 42 and 48. The medium was changed every 2 days. Confluent”

Setting [5] is: Mus musculus, po, single oral dose 25 mg/kg, compared with untreated controls, read-out: Gastroprotective effect: % Lesion reduction.
The mark [6] stands for this setting: single oral dose 25 mg/kg, sum of lesion lengths.

The structures appear in SMILES notation. Bounds are passed on as bounds.

`C=C1CCC2[C@](C)(CCC[C@]2(C)C(=O)O)[C@H]1CC[C@@H](C)CC(=O)N[C@@H](Cc1c[nH]c2ccccc12)C(=O)OC` (some centres unmarked) [Compound 15, Labd-8(17)-en-15,19-dioic acid, 15-tryptophanyl methyl ester amide]: the inhibition in vivo at 25 mg/kg in data set [1] (setting [5]) was 73.7%. Besides, the “Gastroprotective effect: Lesion index” value in data set [1] (setting [6]) came to 12.1 ± 4.7 mm. For the same molecule, the IC50 at 24 h in data set [2], in data set [3] and in data set [4] was more than 1000 µM each time.
Regarding `C=C1CCC2[C@](C)(CCC[C@]2(C)C(=O)NCC(=O)OC)[C@H]1CC[C@@H](C)CC(=O)NCC(=O)OC` (some centres unmarked) [Compound 16, Labd-8(17)-en-15,19-dioic acid, 15,19-diglycyl methyl ester amide], the inhibition in vivo at 25 mg/kg in data set [1] (setting [5]) worked out at 73.5%. In data set [1] (setting [6]), the “Gastroprotective effect: Lesion index” value turned out to be 12.2 ± 6.9 mm. In addition, the values for the 50% inhibitory concentration (IC50) at 24 h in data set [2], in data set [3] and in data set [4] were 483 ± 29 µM, more than 1000 µM and 529 ± 36 µM, respectively.
Turning to `C=C1CCC2[C@](C)(CCC[C@]2(C)C(=O)N[C@@H](CC(C)C)C(=O)OC)[C@H]1CC[C@@H](C)CC(=O)N[C@@H](CC(C)C)C(=O)OC` (some centres unmarked) [Compound 18, Labd-8(17)-en-15,19-dioic acid, 15,19-dileucyl methyl ester amide], the inhibition in vivo at 25 mg/kg in data set [1] (setting [5]) is approximately 49.6%. In addition, the “gastric lesion reduction at the higher doses” value in data set [1] (dose-response study, higher oral doses (50 and 100 mg/kg)) is given as 79-89%. Further, the “Gastroprotective effect: Lesion index” value in data set [1] (single oral dose 25 mg/kg, sum of lesion lengths, 25 mg/kg) turned out to be 23.2 ± 12.9 mm. The IC50 (usually the point on the concentration scale where inhibition reaches its midpoint) at 24 h is more than 1000 µM in data set [2], 495 ± 35 µM in data set [3] and more than 1000 µM in data set [4].
As to `C=C1CCC2[C@](C)(CCC[C@]2(C)C(=O)N2CCC[C@H]2C(=O)OC)[C@H]1CC[C@@H](C)CC(=O)N1CCC[C@H]1C(=O)OC` (some centres unmarked) [Compound 19, Labd-8(17)-en-15,19-dioic acid, 15,19-diprolyl methyl ester amide], the inhibition in vivo at 25 mg/kg in data set [1] (setting [5]) amounted to 87.8%. Besides, the “Gastroprotective effect: Lesion index” value in data set [1] (setting [6]) is recorded as 5.6 ± 3.2 mm. In addition, the half-inhibitory concentration (IC50) at 24 h stood at 206 ± 10 µM in data set [2], 267 ± 14 µM in data set [3] and 316 ± 16 µM in data set [4].
As to `C=C1CCC2[C@](C)(CCC[C@]2(C)C(=O)N[C@@H](Cc2c[nH]c3ccccc23)C(=O)OCC)[C@H]1CC[C@@H](C)CC(=O)N[C@@H](Cc1c[nH]c2ccccc12)C(=O)OCC` (some centres unmarked) [Compound 20, Labd-8(17)-en-15,19-dioic acid, 15,19-ditryptophanyl ethyl ester amide], the inhibition in vivo at 25 mg/kg in data set [1] (setting [5]) came out at 68.9%. Further, in data set [1] (setting [6]), the “Gastroprotective effect: Lesion index” value came to 14.3 ± 10.7 mm. Also, the IC50 at 24 h in data set [2], in data set [3] and in data set [4] was more than 1000 µM each time.
Consider `Cc1c(OCC(F)(F)F)ccnc1C[S+]([O-])c1nc2ccccc2[nH]1` (centres unmarked) [Lansoprazole, 2-[[[3-methyl-4-(2,2,2-trifluroethoxy)-2-pyridyl]methyl]sulfinyl]benzimidazole, reference compound], for which the inhibition in vivo at 20 mg/kg in data set [1] (Mus musculus, po, reference drug at 20 mg/kg oral, compared with untreated controls, read-out: Gastroprotective effect: % Lesion reduction) is 79.3%. The “Gastroprotective effect: Lesion index” value came to 9.5 ± 2.5 mm in data set [1] (reference drug at 20 mg/kg oral, 20 mg/kg) and 9.5 ± 2.5 mm in data set [1] (reference drug at 20 mg/kg oral, listed as lansoprazole, 20 mg/kg). Moreover, the figures for the IC50 at 24 h in data set [2], in data set [3] and in data set [4] were 162 ± 6 µM, 306 ± 11 µM and 221 ± 9 µM, respectively.
